Assay results as given in patent US20230226092A1, “CANCER […] ON G[…]” (NuCana plc, priority 2015, published 2023).

System: primary acute myeloid leukaemia (AML) blasts
Test: In vitro cytotoxicity assay (annexin V apoptosis) in primary acute myeloid leukemia cells
Assay type: cell-based, human
Conditions: primary AML blasts, CD34+ cells, 48h, annexin V
Description: NUC-1031 was assayed for its cytotoxic effects on primary cultures of acute myeloid leukaemia (AML) blasts. LD50 values (the concentration required to kill 50% of the tumour cells in culture) were calculated in respect of NUC-1031 and gemcitabine.
Bone marrow samples were collected in ethylenediaminetetraacetic acid (EDTA) from newly diagnosed, previously untreated, acute myeloid leukemia (AML) patients. AML blasts were enriched by density gradient centrifugation using Histopaque (Sigma, Poole, UK) and were subsequently maintained in Roswell Park Memorial Institute medium (RPMI) supplemented with 10% foetal bovine serum (FBS). Cells were treated with Gemcitabine or NUC-1031 at concentrations between 0.25 µM and 10 µM, and incubated for 48h. All cultures were maintained at 37° C. in a 5% CO2 humidified atmosphere.
Cells were harvested and labelled with CD34-fluorescein isothiocyanate (FITC) (BD Biosciences, Buckingham, UK) and then resuspended in 200 µl of binding buffer containing 4µl of annexin V labelled with allophycocyanin (APC) (eBioscience Ltd, Hatfield, UK). Apoptosis was quantified in the CD34^+ AML cells using an Accuri C6 flow cytometer (Becton Dickinson, CA, USA). At least 10,000 events were acquired and data were subsequently analysed using FlowJo software (Tree Star Inc., Ashland, OR, USA). All LD50 values (concentration of drug required to kill 50% of cells) were derived from the dose-response curves.

Nc1ccn([C@@H]2O[C@H](CO)[C@@H](O)C2(F)F)c(=O)n1 [gemcitabine, reference compound]
mean LD50: 3.1 µM
